{"source": "patent US20250127863A1", "about": "“ANTIMICROBIAL PEPTIDE FOR ONYCHOMYCOSIS” (CBMR SCIENTIFIC NANOSCIENCE B.V., priority 2019, published 2025)", "key": {"C. albicans AA (LUMC)": {"test_system": "C. albicans AA (LUMC)", "assay": "MIC90 growth inhibition", "format": "cell-based, Candida albicans", "conditions": "RPMI 1640 one-fourth strength", "description": "(§1) The minimum inhibitory concentration (MIC) value is defined as the lowest sample concentration that inhibited growth. In the Examples, the MIC90 value is presented, which MIC90 values are determined according to established methods known to the person with the skills in the relevant art. Experiments; 1×10E5 CFU of various strains/ml were incubated for 24-48 h at 37° C. in 4× diluted medium of RPMI 1640 with the indicated concentrations of antimicrobial peptide hLF(1-11) [SEQ ID NO: 3]. As controls various strains cells were incubated for 24-48 h at 37° C. with no agent (antimicrobial peptide), and subsequently, growth of the microbial organism (e.g. yeast, bacterium) was monitored by using spectrophotometry with a spectrophotometer at 620 nm. […] ND=Not done. Representative single assay data are listed rather than a range, for clarity reasons and for ease of comparison of peptide efficacy. The MIC was calculated as the lowest antibiotic (antimicrobial peptide) concentration at which growth of the assessed yeast or bacterium (microbe) was inhibited (inhibitory concentration IC90)."}, "C. albicans ATCC 10231": {"test_system": "C. albicans ATCC 10231", "assay": "MIC90 growth inhibition", "format": "cell-based, Candida albicans", "conditions": "RPMI 1640 one-fourth strength", "description": "as §1"}, "[1]": {"test_system": "C. guilliermondii CBS-2030", "assay": "MIC90 growth inhibition", "format": "cell-based, Candida guilliermondii", "conditions": "RPMI 1640 one-fourth strength", "description": "as §1"}, "C. guilliermondii": {"test_system": "C. guilliermondii", "assay": "MIC90 growth inhibition", "format": "cell-based, Candida guilliermondii", "conditions": "RPMI 1640 one-fourth strength", "description": "as §1"}, "[2]": {"test_system": "Crypt. neoform. ▴ SKN7 (UMC)", "assay": "MIC90 growth inhibition", "format": "cell-based, Cryptococcus neoformans", "conditions": "genetically modified type species, RPMI 1640 one-fourth strength", "description": "as §1"}, "Sclerotinia sclerotiorum": {"test_system": "Sclerotinia sclerotiorum", "assay": "IC50 growth inhibition", "format": "cell-based"}, "Trichoderma viride": {"test_system": "Trichoderma viride", "assay": "IC50 growth inhibition", "format": "cell-based"}, "S. epidermidis Type 2163": {"test_system": "S. epidermidis Type 2163", "assay": "MIC90 growth inhibition", "format": "cell-based, Staphylococcus epidermidis", "conditions": "RPMI 1640 one-fourth strength", "description": "as §1"}}, "note": "No end group written: not given here.", "data": [{"sequence": "GRRRRSVQWCA [hLF1-11, Gly Arg Arg Arg Arg Ser Val Gln Trp Cys Ala]", "values": [{"measurement": "Inhibitory concentration MIC (MIC90)", "setting": "C. albicans AA (LUMC)", "value": "MIC = 25 μg/mL"}, {"measurement": "Inhibitory concentration MIC (MIC90)", "setting": "C. albicans ATCC 10231", "value": "MIC = 25 μg/mL"}, {"measurement": "Inhibitory concentration MIC (MIC90)", "setting": "[1]", "value": "MIC = 50 μg/ml"}, {"measurement": "Inhibitory concentration MIC (MIC90)", "setting": "C. guilliermondii", "value": "MIC = 5-40 μg/ml"}, {"measurement": "Inhibitory concentration MIC (MIC90)", "setting": "[2]", "value": "MIC = 6.3 μg/ml"}, {"measurement": "Inhibitory concentration IC50", "setting": "Sclerotinia sclerotiorum", "value": "IC50 = 31 μg/mL"}, {"measurement": "Inhibitory concentration IC50", "setting": "Trichoderma viride", "value": "IC50 = 952 μg/mL"}, {"measurement": "Inhibitory concentration MIC (MIC90)", "setting": "S. epidermidis Type 2163", "value": "MIC = 3.1 μg/ml"}]}]}
